Tests used:
[1] = test system: HeLa cells; assay: Example 75: chemical modifications of luciferase mRNA, RLU (Table 114); assay type: cell-based; conditions: 83 ng luciferase mRNA, 18 to 22 hours
Procedure: The day before transfection, 20,000 HeLa cells (ATCC no. CCL-2; Manassas, Va.) were harvested by treatment with Trypsin-EDTA solution (Life Technologies, Grand Island, N.Y.) and seeded in a total volume of 100 ul EMEM medium (supplemented with 10% FCS and 1× Glutamax) per well in a 96-well cell culture plate (Corning, Manassas, Va.). The cells were grown at 37° C. in 5% CO2 atmosphere overnight. […] Lipofectamine 2000 (LifeTechnologies, Grand Island, N.Y.) was used as transfection reagent and 0.2 ul were diluted in 10 ul final volume of OPTI-MEM. After 5 minutes of incubation at room temperature, both solutions were combined and incubated an additional 15 minute at room temperature. Then the 20 ul combined solution was added to the 100 ul cell culture medium containing the HeLa cells and incubated at room temperature.
After 18 to 22 hours of incubation cells expressing luciferase were lysed with 100 ul of Passive Lysis Buffer (Promega, Madison, Wis.) according to manufacturer instructions. Aliquots of the lysates were transferred to white opaque polystyrene 96-well plates (Corning, Manassas, Va.) and combined with 100 ul complete luciferase assay solution (Promega, Madison, Wis.). The lysate volumes were adjusted or diluted until no more than 2 mio relative light units (RLU) per well were detected for the strongest signal producing samples and the RLUs for each chemistry tested are shown in Table 114. The plate reader was a BioTek Synergy H1 (BioTek, Winooski, Vt.). The background signal of the plates without reagent was about 200 relative light units per well.

[2] = test system: Balb-C mice; assay: Example 88: chemically modified luciferase mRNA in PBS IM, SC, flux (Tables 136, 137); assay type: in vivo; conditions: luciferase mRNA in PBS (pH 7.4), 2.5 mg/kg
Procedure: Twenty minutes prior to imaging, mice were injected intraperitoneally with a D-luciferin solution at 150 mg/kg. Animals were then anesthetized and images were acquired with an IVIS Lumina II imaging system (Perkin Elmer). Bioluminescence was measured as total flux (photons/second) of the entire mouse. The mice were imaged at 2 hours, 8 hours and 24 hours. […] The background signal was 3.84E+05 (p/s).

[3] = test system: HEK293A; assay: Example 44: signal sequence exchange, secreted G-CSF ELISA (Table 70); assay type: cell-based; conditions: 293A, 250 ng mRNA, Lipofectamine 2000, supernatant 24 hrs
Excerpt: (§1) These variants included the G-CSF constructs encoding either the wild-type N terminal secretory signal peptide sequence ([…]; SEQ ID NO: 19), no secretory signal peptide sequence, or secretory signal peptide sequences taken from other mRNAs. These included sequences where the wild type GCSF signal peptide sequence was replaced with the signal peptide sequence of either: human α-1-anti trypsin (AAT) ([…]; SEQ ID NO: 20), human Factor IX (FIX) ([…]; SEQ ID NO: 21), human Prolactin (Prolac) ([…]; SEQ ID NO: 22), or human Albumin (Alb) ([…]; SEQ ID NO: 23).
(§2) 250 ng of modified mRNA encoding each G-CSF variant was transfected into HEK293A (293A in the table), mouse myoblast (MM in the table) (C2C12, CRL-1772, ATCC) and rat myoblast (RM in the table) (L6 line, CRL-1458, ATCC) cell lines in a 24 well plate using 1 ul of Lipofectamine 2000 (Life Technologies), each well containing 300,000 cells. […] The data shown in Table 70 reveal that cells transfected with G-CSF mmRNA encoding the Albumin signal peptide secrete at least 12 fold more G-CSF protein than its wild type counterpart.

[4] = test system: mouse myoblast (C2C12); assay: as above; assay type: cell-based; conditions: MM (mouse myoblast C2C12), 250 ng mRNA, supernatant 24 hrs
Excerpt: as §1, §2

[5] = test system: rat myoblast (L6 line); assay: as above; assay type: cell-based; conditions: RM (rat myoblast L6), 250 ng mRNA, supernatant 24 hrs
Excerpt: as §1, §2

[6] = test system: BALB/C mice; assay: Example 59: G-CSF mRNA IM in mice, serum human G-CSF and mouse IFN-alpha ELISA (Table 93); assay type: in vivo
[7] = test system: mice; assay: Example 41: IV lipoplexed G-CSF mRNA in mice, neutrophil count (Table 66); assay type: in vivo; conditions: IV 10% lipoplex, 50 ug at days 0, 2, 4; day 5
Procedure: Neutrophils were measured at days 1, 5 and 8. Controls included non-specific mammalian RNA or the formulation buffer alone (F.Buffer). The mice were bled at days 1, 5 and 8 to determine the effect of mRNA-encoded human G-CSF to increase neutrophil count. The dosing regimen is shown in Table 66 as are the resulting neutrophil counts (thousands/uL; K/uL).

[8] = test system: BJ fibroblasts
[9] = test system: human PBMC; assay: Example 45: PBMC transfection, IFN-alpha ELISA (Table 72); assay type: cell-based
Procedure: The plates were then incubated at 37 C.
Each condition was done in duplicate.
Shown in Tables 71 and 72 are the average from 2 separate PBMC donors of the G-CSF and IFN-alpha production over time as measured by specific ELISA.

[10] = Example 61: storage stability of G-CSF mRNA, gel electrophoresis (Bio-Rad EXPERION); assay type: physicochemical
Procedure: Stability experiments were conducted to obtain a better understanding of storage conditions to retain the integrity of modified RNA. […] After the mRNA had been stored for 0 hours, 2 hours, 6 hours, 24 hours, 48 hours, 5 days and 14 days, the mRNA was analyzed by gel electrophoresis using a Bio-Rad EXPERION™ system. The modified, unmodified and lipoplexed G-CSF mRNA was also stored in RNASTABLE® (Biomatrica, Inc. San Diego, Calif.) at 40° C. or water at −80° C. or 40° C. for 35 days before being analyzed by gel electrophoresis.
mRNA samples stored at 4° C., 25° C. and 37° C. were stored in 1×TE buffer or the formulation buffer (150 mM sodium chloride, 2 mM calcium chloride, 2 mM phosphate, 0.5 mM EDTA at a pH of 6.5). The mRNA stored at 4° C. was stable to at least 60 days in both the TE and formulation buffer. At 25° C. the mRNA in formulation buffer was stable out to 14 days and the TE buffer was stable out to at least 6 days. Storage of mRNA in the formulation buffer at 37° C. was stable to 6 days compared to the TE buffer which was stable only until 4 days.

[11] = I.M., 200 ug/mouse (R848 75 ug/mouse), 50 ul, 8 hours after dosing

5-methylcytosine and pseudouridine
RLU [1]: 1601234 RLU

COc1cn([C@@H]2O[C@H](CO)[C@@H](O)[C@H]2O)c(=O)[nH]c1=O [Formulation 5-methoxyuridine, 5-methoxyuridine]
Flux, Intramuscular Administration ([2]; 2 hours): 4.93E+06 p/s
Flux, Intramuscular Administration ([2]; 8 hours): 1.80E+07 p/s
Flux, Intramuscular Administration ([2]; 24 hours): 4.53E+07 p/s
Flux, Subcutaneous Administration ([2]; 2 hours): 7.10E+06 p/s
Flux, Subcutaneous Administration ([2]; 8 hours): 9.38E+06 p/s
Flux, Subcutaneous Administration ([2]; 24 hours): 1.32E+07 p/s

CC(=O)Nc1ccn([C@@H]2O[C@H](CO)[C@@H](O)[C@H]2O)c(=O)n1 [Formulation N4-acetylcytidine, N4-acetylcytidine]
Flux, Intramuscular Administration ([2]; 2 hours): 1.32E+07 p/s
Flux, Intramuscular Administration ([2]; 8 hours): 2.15E+07 p/s
Flux, Intramuscular Administration ([2]; 24 hours): 4.01E+07 p/s
Flux, Subcutaneous Administration ([2]; 2 hours): 3.07E+07 p/s
Flux, Subcutaneous Administration ([2]; 8 hours): 1.23E+07 p/s
Flux, Subcutaneous Administration ([2]; 24 hours): 1.28E+07 p/s

O=c1[nH]cc([C@@H]2O[C@H](CO)[C@@H](O)[C@H]2O)c(=O)[nH]1 [Pseudouridine]
RLU [1]: 140234 RLU

O=c1[nH]c(=O)n([C@@H]2O[C@H](CO)[C@@H](O)[C@H]2O)cc1Br [Sample 5-Bromouridine, 5-Bromouridine]
RLU [1]: 6787 RLU

COc1cn([C@@H]2O[C@H](CO)[C@@H](O)[C@H]2O)c(=O)[nH]c1=O [Sample 5-methoxyuridine, 5-methoxyuridine]
RLU [1]: 219657 RLU

Cn1cc([C@@H]2O[C@H](CO)[C@@H](O)[C@H]2O)c(=O)[nH]c1=O [Sample N1-methylpseudouridine, N1-methylpseudouridine]
RLU [1]: 3068261 RLU

CC(=O)Nc1ccn([C@@H]2O[C@H](CO)[C@@H](O)[C@H]2O)c(=O)n1 [Sample N4-Acetylcytidine, N4-Acetylcytidine]
RLU [1]: 1073251 RLU

Albumin
secreted G-CSF protein [3]: 122050 pg/mL
secreted G-CSF protein [4]: 81050 pg/mL
secreted G-CSF protein [5]: 173300 pg/mL

Prolactin
secreted G-CSF protein [3]: 7875 pg/mL
secreted G-CSF protein [4]: 1525 pg/mL
secreted G-CSF protein [5]: 9800 pg/mL

α-1-anti trypsin
secreted G-CSF protein [3]: 9950 pg/mL
secreted G-CSF protein [4]: 5000 pg/mL
secreted G-CSF protein [5]: 8475 pg/mL

B1: unmodified G-CSF mRNA: G-CSF mRNA (SEQ ID NO: 4) with natural NTPs, Cap1 (nucleic acid)
chain: GGGAAAUAAGAGAGAAAAGAAGAGUAAGAAGAAAUAUAAGAGCCACCAUGGCCGGUCCCGCGACCCAAAGCCCCAUGAAACUUAUGGCCCUGCAGUUGCUGCUUUGGCACUCGGCCCUCUGGACAGUCCAAGAAGCGACUCCUCUCGGACCUGCCUCAUCGUUGCCGCAGUCAUUCCUUUUGAAGUGUCUGGAGCAGGUGCGAAAGAUUCAGGGCGAUGGAGCCGCACUCCAAGAGAAGCUCUGCGCGACAUACAAACUUUGCCAUCCCGAGGAGCUCGUACUGCUCGGGCACAGCUUGGGGAUUCCCUGGGCUCCUCUCUCGUCCUGUCCGUCGCAGGCUUUGCAGUUGGCAGGGUGCCUUUCCCAGCUCCACUCCGGUUUGUUCUUGUAUCAGGGACUGCUGCAAGCCCUUGAGGGAAUCUCGCCAGAAUUGGGCCCGACGCUGGACACGUUGCAGCUCGACGUGGCGGAUUUCGCAACAACCAUCUGGCAGCAGAUGGAGGAACUGGGGAUGGCACCCGCGCUGCAGCCCACGCAGGGGGCAAUGCCGGCCUUUGCGUCCGCGUUUCAGCGCAGGGCGGGUGGAGUCCUCGUAGCGAGCCACCUUCAAUCAUUUUUGGAAGUCUCGUACCGGGUGCUGAGACAUCUUGCGCAGCCGUGAAGCGCUGCCUUCUGCGGGGCUUGCCUUCUGGCCAUGCCCUUCUUCUCUCCCUUGCACCUGUACCUCUUGGUCUUUGAAUAAAGCCUGAGUAGGAAG
modifications: Cap1
Protein: Cytokine Ratio (PC Ratio) ([6]; G-CSF / IFN-alpha): 9
G-CSF protein (human, serum) [6, 11]: 605.6 pg/mL
IFN-alpha expression (mouse, serum) [6, 11]: 67.01 pg/mL
PC Ratio (Protein: Cytokine Ratio) ([6]; I.M., 200 ug/mouse (R848 75 ug/mouse), 8 hours after dosing): 9
human G-CSF expression in mouse serum ([6]; IM, 8 hours): resulted in human G-CSF expression in mouse serum
mouse IFN-alpha in the serum (cytokine response) ([6]; IM, 8 hours): robust cytokine response
increase in neutrophil count above control [7]: no pharmacologic effect
time to cytokine response (IFN-beta, IL-6) [8]: after one day
IFN-alpha / cytokine production [9]: substantial IFN-alpha production
freeze/thaw cycles tolerated [10]: 12 cycles
stable out to ([10]; stored at 25° C.): 48 h
stable out to ([10]; stored at 37° C.): 6 h
stable out to ([10]; stored at 50° C.): 2 h

From US20190142971A1, “FORMULATION AND DELIVERY OF MODIFIED NUCLEOSIDE, NUCLEOTIDE, AND NUCLEIC ACID COMPOSITIONS” (ModernaTX, Inc., priority 2013, published 2019)
